# Experimental data published in ChEMBL document CHEMBL4229455, “Synthesis and anticancer activity of novel bisindolylhydroxymaleimide derivatives with potent GSK-3 kinase inhibition” (Bioorg Med Chem, 2018).
# How the values were obtained:
# Format in all cases: functional
# [1] = test system: LOX IMVI; assay: Cytotoxicity against human LOXIMVI cells assessed as cell growth at 0.01 uM after 48 hrs by SRB assay relative to control; conditions: read-out: Activity
# [2] = test system: SK-MEL-2; assay: Cytotoxicity against human SK-MEL-2 cells assessed as cell growth at 0.01 uM after 48 hrs by SRB assay relative to control; conditions: SK-MEL-2, 48 h, read-out: Activity
# [3] = test system: OVCAR-5; assay: Cytotoxicity against human OVCAR5 cells assessed as cell growth at 0.01 uM after 48 hrs by SRB assay relative to control; conditions: OVCAR-5, 48 h, read-out: Activity
# [4] = test system: SK-OV-3; assay: Cytotoxicity against human SKOV3 cells assessed as cell growth at 0.01 uM after 48 hrs by SRB assay relative to control; conditions: SK-OV-3, 48 h, read-out: Activity
# [5] = test system: DU-145; assay: Cytotoxicity against human DU145 cells assessed as cell growth at 0.01 uM after 48 hrs by SRB assay relative to control; conditions: DU-145, 48 h, read-out: Activity
# [6] = test system: MCF7; assay: Cytotoxicity against human MCF7 cells assessed as cell growth at 0.01 uM after 48 hrs by SRB assay relative to control; conditions: MCF7, 48 h, read-out: Activity
# [7] = test system: NCI-H460; assay: Cytotoxicity against human NCI-H460 cells assessed as cell growth at 0.1 uM after 48 hrs by SRB assay relative to control; conditions: NCI-H460, 48 h, read-out: Activity
# [8] = test system: Malme-3M; assay: Cytotoxicity against human MALME-3M cells assessed as cell growth at 0.1 uM after 48 hrs by SRB assay relative to control; conditions: read-out: Activity
# [9] = test system: CAKI-1; assay: Cytotoxicity against human Caki1 cells assessed as cell growth at 0.1 uM after 48 hrs by SRB assay relative to control; conditions: CAKI-1, 48 h, read-out: Activity
# [10] = test system: TK-10; assay: Cytotoxicity against human TK10 cells assessed as cell growth at 0.1 uM after 48 hrs by SRB assay relative to control; conditions: TK-10, 48 h, read-out: Activity
# [11] = test system: T47D; assay: Cytotoxicity against human T47D cells assessed as cell growth at 0.1 uM after 48 hrs by SRB assay relative to control; conditions: read-out: Activity
# [12] = test system: SR; assay: Cytotoxicity against human SR cells assessed as cell growth at 1 uM after 48 hrs by SRB assay relative to control; conditions: read-out: Activity
# [13] = test system: LOX IMVI; assay: Cytotoxicity against human LOXIMVI cells assessed as cell growth at 1 uM after 48 hrs by SRB assay relative to control; conditions: read-out: Activity
# [14] = test system: Malme-3M; assay: Cytotoxicity against human MALME-3M cells assessed as cell growth at 1 uM after 48 hrs by SRB assay relative to control; conditions: read-out: Activity
# [15] = test system: SK-MEL-28; assay: Cytotoxicity against human SK-MEL-28 cells assessed as cell growth at 1 uM after 48 hrs by SRB assay relative to control; conditions: SK-MEL-28, 48 h, read-out: Activity
# [16] = test system: UACC-62; assay: Cytotoxicity against human UACC62 cells assessed as cell growth at 1 uM after 48 hrs by SRB assay relative to control; conditions: UACC-62, 48 h, read-out: Activity
# [17] = test system: 786-0; assay: Cytotoxicity against human 786-O cells assessed as cell growth at 1 uM after 48 hrs by SRB assay relative to control; conditions: 786-0, 48 h, read-out: Activity
# [18] = test system: Hs-578T; assay: Cytotoxicity against human Hs 578T cells assessed as cell growth at 1 uM after 48 hrs by SRB assay relative to control; conditions: read-out: Activity
# [19] = test system: SR; assay: Cytotoxicity against human SR cells assessed as cell growth at 100 uM after 48 hrs by SRB assay relative to control; conditions: read-out: Activity
# [20] = test system: NCI-H23; assay: Cytotoxicity against human NCI-H23 cells assessed as cell growth at 100 uM after 48 hrs by SRB assay relative to control; conditions: NCI-H23, 48 h, read-out: Activity
# [21] = test system: MDA-MB-435; assay: Cytotoxicity against human MDA-MB-435 cells assessed as cell growth at 100 uM after 48 hrs by SRB assay relative to control; conditions: MDA-MB-435, 48 h, read-out: Activity
# [22] = test system: SK-MEL-2; assay: Cytotoxicity against human SK-MEL-2 cells assessed as cell growth at 100 uM after 48 hrs by SRB assay relative to control; conditions: SK-MEL-2, 48 h, read-out: Activity
# [23] = test system: OVCAR-3; assay: Cytotoxicity against human OVCAR3 cells assessed as cell growth at 100 uM after 48 hrs by SRB assay relative to control; conditions: OVCAR-3, 48 h, read-out: Activity
# [24] = test system: OVCAR-5; assay: Cytotoxicity against human OVCAR5 cells assessed as cell growth at 100 uM after 48 hrs by SRB assay relative to control; conditions: OVCAR-5, 48 h, read-out: Activity
# [25] = test system: OVCAR-8; assay: Cytotoxicity against human OVCAR8 cells assessed as cell growth at 100 uM after 48 hrs by SRB assay relative to control; conditions: OVCAR-8, 48 h, read-out: Activity
# [26] = test system: NCI/ADR-RES; assay: Cytotoxicity against human NCI-ADR-RES cells assessed as cell growth at 100 uM after 48 hrs by SRB assay relative to control; conditions: read-out: Activity
# [27] = test system: SN12C; assay: Cytotoxicity against human SN12C cells assessed as cell growth at 100 uM after 48 hrs by SRB assay relative to control; conditions: read-out: Activity
# [28] = test system: PC-3; assay: Cytotoxicity against human PC3 cells assessed as cell growth at 100 uM after 48 hrs by SRB assay relative to control; conditions: PC-3, 48 h, read-out: Activity
# [29] = test system: BT-549; assay: Cytotoxicity against human BT549 cells assessed as cell growth at 100 uM after 48 hrs by SRB assay relative to control; conditions: BT-549, 48 h, read-out: Activity
# [30] = test system: HOP-92; assay: Cytotoxicity against human HOP92 cells after 48 hrs by SRB assay; conditions: HOP-92, 48 h; for CC50: read-out: LC50 (the source's name)
# [31] = test system: COLO 205; assay: Cytotoxicity against human COLO205 cells after 48 hrs by SRB assay; conditions: COLO 205, 48 h
# [32] = test system: SNB-75; assay: Cytotoxicity against human SNB75 cells after 48 hrs by SRB assay; conditions: SNB-75, 48 h; for CC50: read-out: LC50 (the source's name)
# [33] = test system: A498; assay: Cytotoxicity against human A498 cells after 48 hrs by SRB assay; conditions: A498, 48 h
# [34] = test system: RXF 393; assay: Cytotoxicity against human RXF393 cells after 48 hrs by SRB assay; conditions: RXF 393, 48 h
# [35] = test system: SN12C; assay: Cytotoxicity against human SN12C cells after 48 hrs by SRB assay; conditions: for CC50: read-out: LC50 (the source's name)
# [36] = test system: MDA-MB-231; assay: Cytotoxicity against human MDA-MB-231 cells after 48 hrs by SRB assay; conditions: MDA-MB-231, 48 h
# [37] = test system: MDA-MB-468; assay: Cytotoxicity against human MDA-MB-468 cells after 48 hrs by SRB assay; conditions: MDA-MB-468, 48 h
compound,measurement,setting,value
N#CCCCCCn1cc(C2=C(c3cn(CCCCCC#N)c4ccccc34)C(=O)N(O)C2=O)c2ccccc21,growth at 0.01 µM,[1],94%
same,growth at 0.01 µM,[2],100%
same,growth at 0.01 µM,[3],99%
same,growth at 0.01 µM,[4],98%
same,growth at 0.01 µM,[5],101%
same,growth at 0.01 µM,[6],91%
same,growth at 0.1 µM,[7],104%
same,growth at 0.1 µM,[8],94%
same,growth at 0.1 µM,[9],95%
same,growth at 0.1 µM,[10],95%
same,growth at 0.1 µM,[11],89%
same,growth at 1 µM,[12],114%
same,growth at 1 µM,[13],71%
same,growth at 1 µM,[14],107%
same,growth at 1 µM,[15],103%
same,growth at 1 µM,[16],87%
same,growth at 1 µM,[17],100%
same,growth at 1 µM,[18],88%
same,growth at 100 µM,[19],-14%
same,growth at 100 µM,[20],1%
same,growth at 100 µM,[21],-27%
same,growth at 100 µM,[22],-38%
same,growth at 100 µM,[23],-34%
same,growth at 100 µM,[24],18%
same,growth at 100 µM,[25],3%
same,growth at 100 µM,[26],24%
same,growth at 100 µM,[27],5%
same,growth at 100 µM,[28],-4%
same,growth at 100 µM,[29],-26%
same,GI50,[30],5.03 µM
same,TGI,[30],> 100 µM
same,CC50,[30],> 100 µM
same,GI50,[31],17.7 µM
same,LC50,[31],> 100 µM
same,TGI,[31],58.7 µM
same,GI50,[32],2.84 µM
same,TGI,[32],20 µM
same,CC50,[32],> 100 µM
same,GI50,[33],2.36 µM
same,LC50,[33],> 100 µM
same,TGI,[33],86 µM
same,GI50,[34],3.15 µM
same,LC50,[34],> 100 µM
same,TGI,[34],12.2 µM
same,GI50,[35],8.47 µM
same,TGI,[35],> 100 µM
same,CC50,[35],> 100 µM
same,GI50,[36],4.26 µM
same,LC50 (50% lethal concentration),[36],> 100 µM
same,TGI,[36],64.7 µM
same,GI50,[37],3.47 µM
same,LC50,[37],> 100 µM
same,TGI,[37],13.9 µM
Cn1cc(C2=C(c3cn(C)c4ncccc34)C(=O)NC2=O)c2ccccc21,growth at 0.01 µM,[1],101%
same,growth at 0.01 µM,[2],109%
same,growth at 0.01 µM,[3],98%
same,growth at 0.01 µM,[4],104%
same,growth at 0.01 µM,[5],107%
same,growth at 0.01 µM,[6],93%
same,growth at 0.1 µM,[7],97%
same,growth at 0.1 µM,[8],112%
same,growth at 0.1 µM,[9],86%
same,growth at 0.1 µM,[10],105%
same,growth at 0.1 µM,[11],100%
same,growth at 1 µM,[12],51%
same,growth at 1 µM,[13],74%
same,growth at 1 µM,[14],110%
same,growth at 1 µM,[15],90%
same,growth at 1 µM,[16],89%
same,growth at 1 µM,[17],98%
same,growth at 1 µM,[18],48%
same,growth at 100 µM,[19],-21%
same,growth at 100 µM,[20],-40%
same,growth at 100 µM,[21],-35%
same,growth at 100 µM,[22],-55%
same,growth at 100 µM,[23],-19%
same,growth at 100 µM,[24],-15%
same,growth at 100 µM,[25],-15%
same,growth at 100 µM,[26],-19%
same,growth at 100 µM,[27],-14%
same,growth at 100 µM,[28],-9%
same,growth at 100 µM,[29],-30%
same,GI50,[30],2.54 µM
same,TGI,[30],23.4 µM
same,CC50,[30],> 100 µM
same,GI50,[31],1.69 µM
same,TGI,[31],3.71 µM
same,GI50,[32],0.291 µM
same,TGI,[32],7.97 µM
same,CC50,[32],94.6 µM
same,GI50,[33],0.32 µM
same,TGI,[33],2.34 µM
same,GI50,[34],1.95 µM
same,TGI,[34],5.32 µM
same,GI50,[35],2.31 µM
same,TGI,[35],16.2 µM
same,CC50,[35],> 100 µM
same,GI50,[36],4.67 µM
same,TGI,[36],38.8 µM
same,GI50,[37],2.22 µM
same,TGI,[37],9.46 µM
